Data set [1] is described as follows: mass spectrometric hydrophobicity assessment: acoustic droplet ejection from water/pentanol two-phase system versus single-phase aqueous solution. Type of data set: physicochemical. Conditions: MRM signal; 25 μL pentanol added to 25 μL water, 1 μg/mL analyte; FIGS. 7A and 7B. The protocol: A two-phase system was prepared by adding […] of pentanol to 25 μL of an aqueous solution of dextromethorphan. A SCIEX Triple Quad 6500+ mass spectrometer system having an acoustic droplet dispenser (shown schematically in FIG. 4) equipped with a two-layer acoustic calibration was employed to eject a plurality of droplets from the two-phase system into an OPI of the mass spectrometer for observing an MRM transition of the target analyte. Although in this example, a single MRM transition was monitored, in other cases, multiple MRM transitions of the target analyte can be monitored.
A single-phase aqueous sample was prepared as 1 μg/ml of dextromethorphan in 25 μL of water. A two-phase system was then formed by adding 25 μL of pentanol to 25 μL water in which 0.025 μg was mixed.
The above mass spectrometer was then utilized to obtain a series of measurements of the 272.2→215.1 MRM transition of the target analyte via sampling the single-phase solution and the two-phase system.
By way of comparison, a single-phase aqueous sample of adenosine was prepared by mixing adenosine with 25 μL of water to prepare a single-phase aqueous solution having a concentration of 1 μg/mL of adenosine. A two-phase system was prepared by adding 25 μL of pentanol to 25 μL aqueous single-phase system of adenosine having a concentration of 1 μg/mL adenosine. […]

For data set [2] the following is noted: known values, quoted for comparison; cited from earlier work.

Consider 2 compounds from patent US20240272101A1, “Direct Sampling from Phase-Separated Sample for Hydrophobicity Assessment” (DH Technologies Development Pte. Ltd., priority 2021, published 2024).

The structures appear in SMILES notation.

Consider `Nc1ncnc2c1ncn2[C@@H]1O[C@H](CO)[C@@H](O)[C@H]1O` [adenosine], for which the “relative ratio of the two-phase sampling signal versus the aqueous sampling signal” value in data set [1] is recorded as “less than that associated with dextromethorphan”. For the same compound, in data set [2], the “log P” value is recorded as −1.05. Take `COc1ccc2c(c1)[C@]13CCCC[C@@H]1[C@H](C2)N(C)CC3` [dextromethorphan]: the “log P” value in data set [2] is “+3.75”.
